In PubChem BioAssay (NCI) one finds GI50 and TGI data, which are given here for 2 compounds.

SMILES strings stand for the structures.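 Assay format: 96-well plates, 48-hour exposure. GI50: concentration for 50% inhibition of growth. TGI marks complete inhibition of growth.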

Test systems include CCRF-CEM leukemia; HT29 colon; SK-MEL-5 melanoma; CAKI-1 renal; SNB-75 CNS; COLO 205 colon; RPMI-8226 leukemia; MDA-MB-231 breast; HOP-92 NSCLC; UO-31 renal.
Common to all, as to assay: DTP human tumour cell line panel, 48 h

The term GI50 denotes the concentration at which growth is held to half of that of the control. Usually TGI stands for the concentration at which net growth stops. The low end stands for more potent growth arrest, the high end for less potent growth arrest.

As for `CCC(C)n1ncn(-c2ccc(N3CCN(c4ccc(OCC5COC(Cn6cncn6)(c6ccc(Cl)cc6Cl)O5)cc4)CC3)cc2)c1=O` (stereo not given), the GI50 with CCRF-CEM leukemia is more than 100 µM; with HT29 colon, 867 nM; in the assay with SK-MEL-5 melanoma, 2750 nM; in the assay with CAKI-1 renal, 2880 nM; in the assay with SNB-75 CNS, 11.4 µM; in the assay with COLO 205 colon it was 4.12 µM. The GI50 in the assay with RPMI-8226 leukemia is 973 nM; in the assay with MDA-MB-231 breast it was 7.11 µM; in the assay with HOP-92 NSCLC it was 335 nM; in the assay on UO-31 renal it was 30 µM. Besides, the TGI in the assay on CCRF-CEM leukemia was more than 100 µM; in the assay with HT29 colon it was more than 100 µM; with SK-MEL-5 melanoma it was more than 100 µM; with CAKI-1 renal it was more than 100 µM; with SNB-75 CNS, 71.2 µM; in the assay with COLO 205 colon, more than 100 µM. Besides, the TGI in the assay with RPMI-8226 leukemia was more than 100 µM; in the assay on MDA-MB-231 breast, more than 100 µM; in the assay with HOP-92 NSCLC it was 24.5 µM; with UO-31 renal it was more than 100 µM.

As for `CC(CCC=O)CCOCc1ccccc1` (stereo not given), the total growth inhibition concentration (TGI) in the assay on CCRF-CEM leukemia is more than 84.2 µM; in the assay on HT29 colon, more than 100 µM; in the assay on SK-MEL-5 melanoma it was more than 46.4 µM; in the assay on CAKI-1 renal, more than 60.8 µM; in the assay on SNB-75 CNS it was more than 100 µM; in the assay with COLO 205 colon it was more than 100 µM. The TGI in the assay with RPMI-8226 leukemia, in the assay with MDA-MB-231 breast, in the assay on HOP-92 NSCLC and with UO-31 renal was more than 100 µM throughout.
